Source: article PMC9652379, “Safety evaluations of a synthetic antimicrobial peptide administered intravenously in rats and dogs” (Scientific Reports, 2022)
Positions of bridges follow the written chain, without caps; N, C: chain ends. Non-standard residues stand in square brackets, D forms with d. Residues, ends and D or L forms follow the SMILES beside them. Chains are numbered I, II in the order given. βAla = NCCC(=O)O

Experiments:
Assay type in all cases: in vivo, rat
[1] = tested on: Sprague Dawley rats; assay: Dose range finding in rats: clinical signs, body weight, survival
Method: The purpose of this study was to determine the DRF of SET-M33 peptide when administered by intravenous bolus to Sprague Dawley rats. In order to identify a starting point for DRF, in Phase I of this study the peptide was administered once daily for 3 days at a constant dose of 20 mg/kg/day to six animals (three males and three females). […] No clinical signs were recorded in any animal 20–60 min after administration. Body weight of all animals in Phase I remained constant or decreased slightly during treatment.
Phase II, where 10 animals/group (five males and five females) were used, included a control group and two dose groups (10 mg/kg/day and 20 mg/kg/day), that were injected once daily for seven days. […] At 20 mg/kg/day, additional clinical signs, including decreased activity, irregular and/or slow breathing, piloerection, partially closed eyelids, abnormal uncoordinated gait, reduced body tone and hunched posture, were observed during the 7 days. The mean body weight of males treated with 10 and 20 mg/kg/day declined slightly (6% and 5% less than control group, respectively).
Sprague Dawley rats were used for the toxicity studies. The animals were supplied by Envigo RMS S.L. All animals were 6–8 weeks old at the start of treatment and were allocated randomly to the treatment groups. […]
A viability/mortality check was recorded at least twice daily. […]

[2] = tested on: Sprague Dawley rats; assay: Dose range finding in rats: haematology, clinical biochemistry, urinalysis; conditions: female rats, 7 days, mean ± SD
Method: Clinical haematology, biochemistry and urinalysis parameters were evaluated in animals in Phase II at the end of the treatment period. A complete list of parameters is reported in Materials and Methods. Administration of SET-M33 at 10 and 20 mg/kg/day for 7 days caused a statistically significant decrease of reticulocytes in males and females. […] There were significant differences in other parameters, such as glucose (males at 10 and 20 mg/kg/day), cholesterol (males at 20 mg/kg/day), triglycerides (females at 20 mg/kg/day), electrolytes, total protein and albumin (males at 20 mg/kg/day). Increased urine volume and lower specific gravity compared to the control group was recorded in both sexes at both doses. […]
Blood samples were drawn from the retro-orbital plexus of all animals under light isoflurane anaesthesia. […] The following parameters were determined using an ADVIA 120 haematology analyser (Siemens Healthcare): Red blood cell count (RBC), haemoglobin (Hb), haematocrit (Hct), mean corpuscular volume (MCV), mean corpuscular haemoglobin (MCH), mean corpuscular haemoglobin concentration (MCHC), reticulocyte count (absolute and relative) (Retic), platelet count (Plt), total leukocyte count (WBC), neutrophils (N), lymphocytes (L), monocytes (M), eosinophils (E), basophils (B), large unstained cells (LUC). […]

[3] = tested on: Sprague Dawley rats; assay: Four-week toxicity study with 2-week recovery in rats: mortality, clinical signs, body weight; conditions: for weight loss of euthanized animal: 15 mg/kg/day
Method: The purpose of this study was to evaluate the toxic effects of SET-M33 when administered intravenously to Sprague Dawley rats for 4 weeks. Recovery was evaluated during a 14-day drug-free period. The peptide was administered once a day at three dose levels at 5, 9 and 15 mg/kg/day, and the control group was treated with the vehicle (ten males and ten females per group which were sacrificed after 4 weeks for clinical and necroscopy analyses; five males and five females for the control and 15 mg/kg/day groups which were sacrificed after the 2 weeks recovery period). The higher dose was selected on the basis of the DRF study (above) in which evident toxicity was recorded at the dose of 20 mg/kg. The efficacy dose in mouse is 5 mg/kg[24]. The lowest dose of this test is approximately twice the equivalent efficacy dose in rat (using body surface area) and the intermediate dose is approximately the geometric mean of the other two.
One male died on day 8 and one male and one female were euthanized for animal welfare reasons on days 6 and 10 of the recovery period, respectively, after showing various clinical signs (hunched back, abnormal gait and pallor) and weight loss of 14% and 11%, respectively. SET-M33-related effects consisting of decreased motor activity, irregular breathing, piloerection, closed or partially closed eyelids, abnormal gait and hunched back were recorded in animals treated at 15 mg/kg/day just after administration for the whole treatment period (as in the DRF study above). […] Among animals that had to be sacrificed for welfare reasons, abnormal gait, partially closed eyelids (the male) and decreased motor activity and piloerection (the female) were also recorded from day 3 onwards. […] During the recovery period, body-weight loss (between 2 and 14% based on individual values) was recorded in some animals dosed at 15 mg/kg/day.
Viability/mortality was monitored twice daily throughout the study. Detailed clinical signs were evaluated once at pre-test, once/twice daily during the treatment period and on days 1, 8, 10 to 14 of the recovery period. […]

## CC[C@H](C)[C@H](NC(=O)[C@H](CCCCN)NC(=O)[C@@H](N)CCCCN)C(=O)N[C@@H](CCCNC(=N)N)C(=O)N[C@H](C(=O)N[C@@H](CCCNC(=N)N)C(=O)N[C@@H](CC(C)C)C(=O)N[C@@H](CO)C(=O)N[C@@H](C)C(=O)NCCCC[C@H](NC(=O)[C@H](C)NC(=O)[C@H](CO)NC(=O)[C@H](CC(C)C)NC(=O)[C@H](CCCNC(=N)N)NC(=O)[C@@H](NC(=O)[C@H](CCCNC(=N)N)NC(=O)[C@@H](NC(=O)[C@H](CCCCN)NC(=O)[C@@H](N)CCCCN)[C@@H](C)CC)C(C)C)C(=O)NCCCC[C@H](NC(=O)[C@H](CCCCNC(=O)[C@H](C)NC(=O)[C@H](CO)NC(=O)[C@H](CC(C)C)NC(=O)[C@H](CCCNC(=N)N)NC(=O)[C@@H](NC(=O)[C@H](CCCNC(=N)N)NC(=O)[C@@H](NC(=O)[C@H](CCCCN)NC(=O)[C@@H](N)CCCCN)[C@@H](C)CC)C(C)C)NC(=O)[C@H](C)NC(=O)[C@H](CO)NC(=O)[C@H](CC(C)C)NC(=O)[C@H](CCCNC(=N)N)NC(=O)[C@@H](NC(=O)[C@H](CCCNC(=N)N)NC(=O)[C@@H](NC(=O)[C@H](CCCCN)NC(=O)[C@@H](N)CCCCN)[C@@H](C)CC)C(C)C)C(=O)NCCC(=O)O)C(C)C [SET-M33] (I: H-KKIRVRLSAKK[βAla]-OH / II: H-KKIRVRLSAK / III: H-KKIRVRLSA / IV: H-KKIRVRLSA; amide I:10-IV:C, I:11-II:C, II:10-III:C (inferred); N-terminus and C-terminus assumed)
[1]; female rats, 10 and 20 mg/kg/day iv, 7 days (Phase II)
  female body weight: unaffected by treatment
[1]; rats, Phase I 20 mg/kg/day 3 days and Phase II 10 and 20 mg/kg/day 7 days, iv bolus
  survival: All animals survived both phases
[2]; 10 mg/kg/day iv
  Phos, inorganic phosphorus: 1.96 ± 0.187 mmol/L
[2]; 20 mg/kg/day iv
  Phos, inorganic phosphorus: 2.05 ± 0.26 mmol/L
[3]; one female rat, euthanized day 10 of recovery
  weight loss of euthanized animal: 11%
[3]; one male rat, euthanized day 6 of recovery
  weight loss of euthanized animal: 14%
[3]; rats, 5, 9 and 15 mg/kg/day iv 4 weeks + 2-week recovery
  mortality: Mortality was only recorded at 15 mg/kg/day
